Experimental data reported in US10556896B2, “Crystalline forms of (3-Amino-oxetan-3-ylmethyl)-[2-(5,5-dioxo-5,6,7,9-tetrahydro-5lambda*6*-thia-8-aza-benzocyclohepten-8-yl)-6-methyl-quinazolin-4-yl]-amine” (Hoffmann-La Roche Inc., priority 2016, dated 2020).
In brackets after ≈: the same amount, converted by molar mass.

What was measured:
Assay type in all cases: physicochemical
[1] = Equilibrium aqueous solubility in bio-relevant media (SGF, FaSSIF, FeSSIF); conditions: for Final pH (FaSSIF) / Final pH (FeSSIF) / Final pH (SGF): after equilibration at 25° C. for 24 hours
Procedure: Aqueous solubility was determined by suspending 10 mg compound in different bio-relevant media including SGF, FaSSIF and FeSSIF. The suspension was equilibrated at 25° C. for 24 hours then the final pH was measured. The suspension was then filtered through a 0.22 um PVDF filter into a 2-mL HPLC vial. The quantitation was conducted by HPLC (described in Example 10) with reference to a standard solution.

[2] = Hygroscopicity of crystal forms by dynamic vapour sorption (DVS); conditions: for Hygroscopicity, water sorption @80% RH: 25° C.; for Hygroscopicity (result in words): compared with Form D
Procedure: Dynamic vapour sorption (DVS) was tested using a DVS intrinsic from SMS (Surface Measurement Systems Co. Ltd.). 20 mg compound (I) of each crystal form was placed in an aluminium sample pan and recorded the sample weight change under different humidity. The DVS method parameters were set according to Table 16, and the method was run by the machine based on such parameters. [table]

[3] = Chemical stability of crystal forms (storage, HPLC chemical purity)
Procedure: HPLC condition is disclosed here in Table 1-1. [table] 40 mg compound (I) of crystal Forms C, E and F were stored in stability chamber with temperature and humidity controlled as 50° C. and 40° C./75% RH respectively, 40 mg compound (I) of Form B was stored at 105° C. oven. After each time point, the samples were analyzed by HPLC to check their chemical purity and compared with their initial value.

SMILES | S, mg/mL (FaSSIF) ([1]; 25° C., 24 hours) | Final pH (FaSSIF) [1] | S, mg/mL (FeSSIF) ([1]; FeSSIF, 25° C., 24 hours) | Final pH (FeSSIF) ([1]; FeSSIF) | S, mg/mL (SGF) ([1]; 25° C., 24 hours) | Final pH (SGF) [1] | Hygroscopicity, water sorption @80% RH [2] | Hygroscopicity (result in words) [2] | Chemical Purity, % ([3]; 105° C., 24 hr) | Chemical Purity, % ([3]; Initial) | Chemical Purity, % ([3]; 40° C./75% RH, 1 month) | Chemical Purity, % ([3]; 50° C., 1 month) | solubility thermodynamic at 24 h ([1]; FeSSIF, 25 °C, fessif, thermodynamic from solid, FeSSIF, 25° C., 24 hours, read-out: S, mg/mL (FeSSIF))
Cc1ccc2nc(N3CCS(=O)(=O)c4ccccc4C3)nc(NCC3(N)COC3)c2c1 [Example 1, Form A of compound (I), (3-Amino-oxetan-3-ylmethyl)-[2-(5,5-dioxo-5,6,7,9-tetrahydro-5lambda*6*-thia-8-aza-benzocyclohepten-8-yl)-6-methyl-quinazolin-4-yl]-amine] | 0.12 mg/mL | 6.60 | 1.72 mg/mL | 5.31 | 2.40 mg/mL | 4.80 | 0.25% water sorption @80% RH | much improved hygroscopicity than Form D |  |  |  |  | 
Cc1ccc2nc(N3CCS(=O)(=O)c4ccccc4C3)nc(NCC3(N)COC3)c2c1 [Example 2, Form B of compound (I), (3-Amino-oxetan-3-ylmethyl)-[2-(5,5-dioxo-5,6,7,9-tetrahydro-5lambda*6*-thia-8-aza-benzocyclohepten-8-yl)-6-methyl-quinazolin-4-yl]-amine] |  |  |  |  |  |  |  |  | 99.80% | 99.81% |  |  | 
Cc1ccc2nc(N3CCS(=O)(=O)c4ccccc4C3)nc(NCC3(N)COC3)c2c1 [Example 3, Form C of compound (I), (3-Amino-oxetan-3-ylmethyl)-[2-(5,5-dioxo-5,6,7,9-tetrahydro-5lambda*6*-thia-8-aza-benzocyclohepten-8-yl)-6-methyl-quinazolin-4-yl]-amine] | 0.11 mg/mL | 6.63 | 1.88 mg/mL | 5.26 | 3.81 mg/mL | 4.92 | 0.04% water sorption @80% RH | much improved hygroscopicity than Form D |  | 99.30% | 99.28% | 99.32% | 
Cc1ccc2nc(N3CCS(=O)(=O)c4ccccc4C3)nc(NCC3(N)COC3)c2c1 [Example 4, Form D of compound (I), (3-Amino-oxetan-3-ylmethyl)-[2-(5,5-dioxo-5,6,7,9-tetrahydro-5lambda*6*-thia-8-aza-benzocyclohepten-8-yl)-6-methyl-quinazolin-4-yl]-amine] |  |  |  |  |  |  | 7.52% water sorption @80% RH | not suitable for further drug development |  |  |  |  | 
Cc1ccc2nc(N3CCS(=O)(=O)c4ccccc4C3)nc(NCC3(N)COC3)c2c1 [Example 5, Form E of compound (I), (3-Amino-oxetan-3-ylmethyl)-[2-(5,5-dioxo-5,6,7,9-tetrahydro-5lambda*6*-thia-8-aza-benzocyclohepten-8-yl)-6-methyl-quinazolin-4-yl]-amine] | 0.90 mg/mL | 5.31 |  | 5.34 | >5 mg/mL | 4.69 | 1.12% water sorption @80% RH | much improved hygroscopicity than Form D |  | 99.49% | 99.14% | 99.45% | 2.18 mg/mL (≈ 4.96 mM)
Cc1ccc2nc(N3CCS(=O)(=O)c4ccccc4C3)nc(NCC3(N)COC3)c2c1 [Example 6, Form F of compound (I), (3-Amino-oxetan-3-ylmethyl)-[2-(5,5-dioxo-5,6,7,9-tetrahydro-5lambda*6*-thia-8-aza-benzocyclohepten-8-yl)-6-methyl-quinazolin-4-yl]-amine] | 1.58 mg/mL | 4.99 | 1.99 mg/mL | 5.18 |  | 3.15 | 0.50% water sorption @80% RH | much improved hygroscopicity than Form D |  | 99.62% | 99.42% | 99.43% | 
